Data: publication PMC4070716 (Journal of Medicinal Chemistry, 2014)
Entries after “also recorded” stand apart in the source; their conditions may differ. Read-outs that look alike come from different tables or passages of the source. Marks after values point to notes of the source that are not given here.

Assays:
[1] = target: T1, human δ opioid receptor (Homo sapiens, UniProt P41143); experiment: [35S]GTPγS binding assay, intrinsic; assay type: biochemical
[2] = target: T2, human μ opioid receptor (Homo sapiens, UniProt P35372); experiment: [35S]GTPγS binding assay, intrinsic; assay type: biochemical
[3] = target: T1, human δ opioid receptor; experiment: Inhibition of DPDPE-stimulated [35S]GTPγS binding; assay type: biochemical; conditions: for Ke (nM) δ, DPDPE: cloned human δ receptor in CHO cells, mean ± SE, at least three experiments
[4] = target: T2, human μ opioid receptor; experiment: Inhibition of DAMGO-stimulated [35S]GTPγS binding; assay type: biochemical; conditions: for fold more potent antagonist than N-methyl counterpart, μ receptor: ratio of Ke values (a vs b analogue)
[5] = target: T3, human κ opioid receptor (Homo sapiens, UniProt P41145); experiment: Inhibition of U69,593-stimulated [35S]GTPγS binding; assay type: biochemical; conditions: for fold more potent antagonist than N-methyl counterpart, κ receptor: ratio of Ke values (a vs b analogue)
[6] = target: T3, human κ opioid receptor; experiment: [35S]GTPγS binding assay, intrinsic; assay type: biochemical
[7] = target: T1, human δ opioid receptor; conditions: cloned human δ receptor; data taken from ref 15; cited from earlier work
[8] = tested on: κ receptor; conditions: mouse writhing test, κ antagonism; cited from earlier work
[9] = tested on: μ receptor; conditions: mouse writhing test, μ antagonism; cited from earlier work
[10] = tested on: opioid receptor; conditions: cited from earlier work
[11] = tested on: opioid receptor; conditions: cited from earlier work; remark: listed apart in the source
[12] = target: T2, human μ opioid receptor; conditions: cloned human μ receptor; data taken from ref 15; cited from earlier work

T3 sequence (P41145 whole entry): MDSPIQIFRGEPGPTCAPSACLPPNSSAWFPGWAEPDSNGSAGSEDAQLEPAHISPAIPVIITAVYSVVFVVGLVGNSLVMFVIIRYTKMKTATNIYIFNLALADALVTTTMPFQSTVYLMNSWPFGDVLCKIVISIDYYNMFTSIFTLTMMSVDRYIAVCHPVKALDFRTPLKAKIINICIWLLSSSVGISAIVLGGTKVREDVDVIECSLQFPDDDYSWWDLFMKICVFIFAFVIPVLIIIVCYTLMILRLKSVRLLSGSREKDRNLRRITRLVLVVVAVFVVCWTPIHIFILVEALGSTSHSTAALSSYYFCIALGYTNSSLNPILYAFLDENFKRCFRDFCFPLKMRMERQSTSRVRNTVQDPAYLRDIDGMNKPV
T1 sequence (P41143 whole entry): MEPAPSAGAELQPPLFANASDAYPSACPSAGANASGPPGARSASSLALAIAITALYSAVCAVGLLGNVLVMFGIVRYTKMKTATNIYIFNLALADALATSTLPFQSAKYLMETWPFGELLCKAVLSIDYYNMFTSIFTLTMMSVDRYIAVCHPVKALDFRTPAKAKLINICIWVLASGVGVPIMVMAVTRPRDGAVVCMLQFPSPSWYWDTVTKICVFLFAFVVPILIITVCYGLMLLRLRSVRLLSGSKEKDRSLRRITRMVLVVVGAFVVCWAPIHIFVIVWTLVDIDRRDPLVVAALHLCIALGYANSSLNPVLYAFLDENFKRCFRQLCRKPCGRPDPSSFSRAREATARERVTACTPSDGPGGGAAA
T2 sequence (P35372 whole entry): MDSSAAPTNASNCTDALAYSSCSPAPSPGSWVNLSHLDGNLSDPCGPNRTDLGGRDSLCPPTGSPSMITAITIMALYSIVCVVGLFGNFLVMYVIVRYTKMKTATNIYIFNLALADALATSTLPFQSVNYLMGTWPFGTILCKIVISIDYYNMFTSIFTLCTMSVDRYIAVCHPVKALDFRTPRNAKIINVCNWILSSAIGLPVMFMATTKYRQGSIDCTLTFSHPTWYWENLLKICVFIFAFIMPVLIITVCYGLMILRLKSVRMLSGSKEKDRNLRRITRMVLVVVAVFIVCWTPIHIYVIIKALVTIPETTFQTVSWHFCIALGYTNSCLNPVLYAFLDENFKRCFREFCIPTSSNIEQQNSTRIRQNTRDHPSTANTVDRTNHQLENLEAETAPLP

Compound: CC1(c2cccc(O)c2)CCN(CCCc2ccccc2)CC1 [Compound 6b, 3-[4-Methyl-1-(3-phenylpropyl)piperidin-4-yl]phenol]
- agonist activity at 10 μM, δ receptor [1]: no agonist efficacy
- agonist activity at 10 μM, μ receptor [2]: no agonist efficacy
- Kb [3]: 178 ± 47 nM
- Kb [4]: 5.5 ± 0.59 nM
- fold more potent antagonist than N-methyl counterpart, μ receptor [4]: 177 fold
- Kb [5]: 21.3 ± 9 nM
- fold more potent antagonist than N-methyl counterpart, κ receptor [5]: 22 fold
- agonist activity at 10 μM, κ receptor [6]: no agonist efficacy

Compound: CC1CN(C)CCC1c1cccc(O)c1 (stereo not drawn) [Compound 5a, 3-(1,3-Dimethylpiperidin-4-yl)phenol]
- Kb [4]: 1250 ± 423 nM
- Kb [5]: 1310 ± 447 nM

Compound: Oc1cccc(C2CCN(CCCc3ccccc3)CC2)c1 [Compound 7b, 3-[1-(3-Phenylpropyl)piperidin-4-yl]phenol]
- agonist activity at 10 μM, δ receptor [1]: no agonist efficacy
- agonist activity at 10 μM, μ receptor [2]: no agonist efficacy
- Kb [3]: 418 ± 120 nM
- Kb [4]: 75.6 ± 21 nM
- Kb [5]: 5.8 ± 2 nM
- agonist activity at 10 μM, κ receptor [6]: no agonist efficacy

Compound: CN1CCN(c2cccc(O)c2)CC1 [Compound 8a, 3-(4-Methylpiperazin-1-yl)phenol]
- agonist activity at 10 μM, δ receptor [1]: no opioid agonist efficacy
- agonist activity at 10 μM, μ receptor [2]: no opioid agonist efficacy
- Kb [3]: 1600 ± 480 nM
- Kb [4]: 4300 ± 1700 nM
- agonist activity at 10 μM, κ receptor [6]: no opioid agonist efficacy

Compound: CN1CCC(c2cccc(O)c2)CC1 [Compound 7a, 3-(1-Methylpiperidin-4-yl)phenol]
- agonist activity at 10 μM, δ receptor [1]: no agonist activity
- agonist activity at 10 μM, μ receptor [2]: no agonist activity
- Ke (nM) δ, DPDPE [3]: inactive; also recorded: no antagonist properties; also recorded: IA ^d
- Ke (nM) μ, DAMGO ([4]; cloned human μ receptor in CHO cells, mean ± SE, at least three experiments): inactive; also recorded: no antagonist properties; also recorded: IA ^d
- Kb [5]: 2700 ± 1300 nM
- agonist activity at 10 μM, κ receptor [6]: no agonist activity

Compound: C[C@H]1CN(C)CCN1c1cccc(O)c1 [Compound 4a, 3-[(2S)-2,4-Dimethylpiperazin-1-yl]phenol]
- agonist activity at 10 μM, δ receptor [1]: no opioid agonist efficacy
- agonist activity at 10 μM, μ receptor [2]: no opioid agonist efficacy
- Ke (nM) δ, DPDPE [3]: no antagonism; also recorded: IA ^d
- agonist activity at 10 μM, κ receptor [6]: no opioid agonist efficacy

Compound: Oc1cccc(N2CCN(CCCc3ccccc3)CC2)c1 [Compound 8b, 3-[4-(3-Phenylpropyl)piperazin-1-yl]phenol]
- agonist activity at 10 μM, δ receptor [1]: no opioid agonist efficacy
- agonist activity at 10 μM, μ receptor [2]: no opioid agonist efficacy
- fold more potent antagonist than N-methyl counterpart, δ receptor ([3]; ratio of Ke values (a vs b analogue)): 47 fold
- fold more potent antagonist than N-methyl counterpart, μ receptor [4]: 507 fold
- Kb [5]: 36.8 ± 16.8 nM
- agonist activity at 10 μM, κ receptor [6]: no opioid agonist efficacy

Compound: CC1CN(CCCc2ccccc2)CCC1c1cccc(O)c1 (stereo not drawn) [Compound 5b, 3-[3-Methyl-1-(3-phenylpropyl)piperidin-4-yl]phenol]
- agonist activity at 10 μM, δ receptor [1]: no agonist efficacy
- agonist activity at 10 μM, μ receptor [2]: no agonist efficacy
- Kb [3]: 46 ± 18 nM
- Kb [4]: 11.9 ± 2 nM
- fold more potent antagonist than N-methyl counterpart, μ receptor [4]: 105 fold
- Kb [5]: 16.5 ± 5 nM
- fold more potent antagonist than N-methyl counterpart, κ receptor [5]: 79 fold
- agonist activity at 10 μM, κ receptor [6]: no agonist efficacy

Compound: C[C@H]1CN(C)CC[C@@]1(C)c1cccc(O)c1 [Compound 2a, 3-[(3R,4R)-1,3,4-Trimethylpiperidin-4-yl]phenol]
- Ke (nM) δ, DPDPE [7]: 681 ± 241 ^b nM
- agonist activity at 10 μM, δ receptor [1]: no opioid agonist efficacy
- AD50, antagonist of U50,488-induced antinociception [8]: > 5.0 mg/kg
- agonist activity at 10 μM, μ receptor [2]: no opioid agonist efficacy
- AD50, antagonist of morphine-induced antinociception [9]: 0.74 mg/kg
- opioid receptor agonist activity in the rat tail heat analgesic test [10]: did not have any opioid receptor agonist activity
- opioid receptor agonist activity in the mouse writhing test [11]: did not have any opioid receptor agonist activity
- Ke (nM) μ, DAMGO [12]: 29.3 ± 3.4 ^b nM
- Kb [5]: 134 ± 27.1 nM
- agonist activity at 10 μM, κ receptor [6]: no opioid agonist efficacy

Compound: C[C@H]1CN(CCCc2ccccc2)CCN1c1cccc(O)c1 [Compound 4b, 3-[(2S)-2-Methyl-4-(3-phenylpropyl)piperazin-1-yl]phenol]
- agonist activity at 10 μM, δ receptor [1]: no opioid agonist efficacy
- agonist activity at 10 μM, μ receptor [2]: no opioid agonist efficacy
- agonist activity at 10 μM, κ receptor [6]: no opioid agonist efficacy

Compound: CN1CCC(C)(c2cccc(O)c2)CC1 [Compound 6a, 3-(1,4-Dimethylpiperidin-4-yl)phenol]
- EC50 [1]: 8300 nM
- Ke (nM) δ, DPDPE [3]: agonist ^c
- Kb [4]: 974 ± 230 nM
- Kb [5]: 477 ± 150 nM

Compound: C[C@H]1CN(CCCc2ccccc2)CC[C@@]1(C)c1cccc(O)c1 [Compound 2b, 3-[(3R,4R)-3,4-Dimethyl-1-(3-phenylpropyl)piperidin-4-yl]phenol]
- Ke (nM) δ, DPDPE [7]: 0.9 ± 0.32 ^b nM
- AD50, antagonist of morphine-induced antinociception [9]: 0.28 mg/kg
- Ke (nM) μ, DAMGO [12]: 0.1 ± 0.02 ^b nM
- Kb [5]: 0.88 ± 0.17 nM
